## CC1(C)[C@@H](O)CC[C@]2(C)[C@H]3C(=O)C=C4[C@@H]5C[C@@](C)(C(=O)O)CC[C@]5(C)CC[C@@]4(C)[C@]3(C)CC[C@@H]12
In 1,4-dioxane, 288.15 K
  solubility (mole fraction): 0.0269
In 1,4-dioxane, 293.15 K
  solubility (mole fraction): 0.028
In 1,4-dioxane, 298.15 K
  solubility (mole fraction): 0.0297
In 1,4-dioxane, 303.15 K
  solubility (mole fraction): 0.0315
In 1,4-dioxane, 308.15 K
  solubility (mole fraction): 0.0327
In 1,4-dioxane, 313.15 K
  solubility (mole fraction): 0.0337
In 1,4-dioxane, 318.15 K
  solubility (mole fraction): 0.0349
In 1,4-dioxane, 323.15 K
  solubility (mole fraction): 0.036
In DMF, 278.15 K
  solubility (mole fraction): 0.0467
In DMF, 283.15 K
  solubility (mole fraction): 0.0474
In DMF, 288.15 K
  solubility (mole fraction): 0.0515
In DMF, 293.15 K
  solubility (mole fraction): 0.0552
In DMF, 298.15 K
  solubility (mole fraction): 0.0576
In DMF, 303.15 K
  solubility (mole fraction): 0.0598
In DMF, 308.15 K
  solubility (mole fraction): 0.0643
In DMF, 313.15 K
  solubility (mole fraction): 0.0678
In DMF, 318.15 K
  solubility (mole fraction): 0.0716
In DMF, 323.15 K
  solubility (mole fraction): 0.0763
In THF, 278.15 K
  solubility (mole fraction): 0.0764
In THF, 283.15 K
  solubility (mole fraction): 0.077
In THF, 288.15 K
  solubility (mole fraction): 0.0774
In THF, 293.15 K
  solubility (mole fraction): 0.078
In THF, 298.15 K
  solubility (mole fraction): 0.0787
In THF, 303.15 K
  solubility (mole fraction): 0.0794
In THF, 308.15 K
  solubility (mole fraction): 0.0804
In THF, 313.15 K
  solubility (mole fraction): 0.0815
In THF, 318.15 K
  solubility (mole fraction): 0.0827
In THF, 323.15 K
  solubility (mole fraction): 0.0842
In acetone, 278.15 K
  solubility (mole fraction): 0.00321
In acetone, 283.15 K
  solubility (mole fraction): 0.00347
In acetone, 288.65 K
  solubility (mole fraction): 0.00365
In acetone, 293.15 K
  solubility (mole fraction): 0.0038
In acetone, 298.15 K
  solubility (mole fraction): 0.00414
In acetone, 303.15 K
  solubility (mole fraction): 0.00438
In acetone, 308.15 K
  solubility (mole fraction): 0.00468
In acetone, 313.15 K
  solubility (mole fraction): 0.00495
In acetone, 318.15 K
  solubility (mole fraction): 0.00543
In acetone, 323.15 K
  solubility (mole fraction): 0.00598
In ethanol, 278.15 K
  solubility (mole fraction): 0.0106
In ethanol, 283.15 K
  solubility (mole fraction): 0.0112
In ethanol, 288.65 K
  solubility (mole fraction): 0.0125
In ethanol, 293.15 K
  solubility (mole fraction): 0.0132
In ethanol, 298.15 K
  solubility (mole fraction): 0.0138
In ethanol, 303.15 K
  solubility (mole fraction): 0.0143
In ethanol, 308.15 K
  solubility (mole fraction): 0.0148
In ethanol, 313.15 K
  solubility (mole fraction): 0.0152
In ethanol, 318.15 K
  solubility (mole fraction): 0.0158
In ethanol, 323.15 K
  solubility (mole fraction): 0.0168
In isobutyl acetate, 278.15 K
  solubility (mole fraction): 0.00229
In isobutyl acetate, 283.15 K
  solubility (mole fraction): 0.00232
In isobutyl acetate, 288.15 K
  solubility (mole fraction): 0.00239
In isobutyl acetate, 293.15 K
  solubility (mole fraction): 0.00242
In isobutyl acetate, 298.15 K
  solubility (mole fraction): 0.00247
In isobutyl acetate, 303.15 K
  solubility (mole fraction): 0.00256
In isobutyl acetate, 308.15 K
  solubility (mole fraction): 0.00273
In isobutyl acetate, 313.15 K
  solubility (mole fraction): 0.00278
In isobutyl acetate, 318.15 K
  solubility (mole fraction): 0.00288
In isobutyl acetate, 323.15 K
  solubility (mole fraction): 0.00314
In isopropanol, 278.15 K
  solubility (mole fraction): 0.00857
In isopropanol, 283.15 K
  solubility (mole fraction): 0.00946
In isopropanol, 288.65 K
  solubility (mole fraction): 0.0114
In isopropanol, 293.15 K
  solubility (mole fraction): 0.012
In isopropanol, 298.15 K
  solubility (mole fraction): 0.0129
In isopropanol, 303.15 K
  solubility (mole fraction): 0.0139
In isopropanol, 308.15 K
  solubility (mole fraction): 0.0149
In isopropanol, 313.15 K
  solubility (mole fraction): 0.0156
In isopropanol, 318.15 K
  solubility (mole fraction): 0.0164
In isopropanol, 323.15 K
  solubility (mole fraction): 0.0174
In methanol, 278.15 K
  solubility (mole fraction): 0.00229
In methanol, 283.15 K
  solubility (mole fraction): 0.00257
In methanol, 288.65 K
  solubility (mole fraction): 0.00295
In methanol, 293.15 K
  solubility (mole fraction): 0.00329
In methanol, 298.15 K
  solubility (mole fraction): 0.00373
In methanol, 303.15 K
  solubility (mole fraction): 0.00427
In methanol, 308.15 K
  solubility (mole fraction): 0.00486
In methanol, 313.15 K
  solubility (mole fraction): 0.00562
In methanol, 318.15 K
  solubility (mole fraction): 0.00675
In methanol, 323.15 K
  solubility (mole fraction): 0.00755
In methyl acetate, 278.15 K
  solubility (mole fraction): 0.00182
In methyl acetate, 283.15 K
  solubility (mole fraction): 0.00196
In methyl acetate, 288.15 K
  solubility (mole fraction): 0.00203
In methyl acetate, 293.15 K
  solubility (mole fraction): 0.00227
In methyl acetate, 298.15 K
  solubility (mole fraction): 0.00244
In methyl acetate, 303.15 K
  solubility (mole fraction): 0.00259
In methyl acetate, 308.15 K
  solubility (mole fraction): 0.0027
In methyl acetate, 313.15 K
  solubility (mole fraction): 0.00293
In methyl acetate, 318.15 K
  solubility (mole fraction): 0.00319
In methyl acetate, 323.15 K
  solubility (mole fraction): 0.0034
In n-butyl acetate, 278.15 K
  solubility (mole fraction): 0.00286
In n-butyl acetate, 283.15 K
  solubility (mole fraction): 0.00297
In n-butyl acetate, 288.15 K
  solubility (mole fraction): 0.00315
In n-butyl acetate, 293.15 K
  solubility (mole fraction): 0.00327
In n-butyl acetate, 298.15 K
  solubility (mole fraction): 0.00333
In n-butyl acetate, 303.15 K
  solubility (mole fraction): 0.00344
In n-butyl acetate, 308.15 K
  solubility (mole fraction): 0.0035
In n-butyl acetate, 313.15 K
  solubility (mole fraction): 0.00354
In n-butyl acetate, 318.15 K
  solubility (mole fraction): 0.00359
In n-butyl acetate, 323.15 K
  solubility (mole fraction): 0.00364
In n-propanol, 278.15 K
  solubility (mole fraction): 0.0131
In n-propanol, 283.15 K
  solubility (mole fraction): 0.0146
In n-propanol, 288.65 K
  solubility (mole fraction): 0.016
In n-propanol, 293.15 K
  solubility (mole fraction): 0.0174
In n-propanol, 298.15 K
  solubility (mole fraction): 0.0186
In n-propanol, 303.15 K
  solubility (mole fraction): 0.0194
In n-propanol, 308.15 K
  solubility (mole fraction): 0.0206
In n-propanol, 313.15 K
  solubility (mole fraction): 0.0218
In n-propanol, 318.15 K
  solubility (mole fraction): 0.0223
In n-propanol, 323.15 K
  solubility (mole fraction): 0.023
In n-propyl acetate, 278.15 K
  solubility (mole fraction): 0.00157
In n-propyl acetate, 283.15 K
  solubility (mole fraction): 0.00176
In n-propyl acetate, 288.15 K
  solubility (mole fraction): 0.00193
In n-propyl acetate, 293.15 K
  solubility (mole fraction): 0.00211
In n-propyl acetate, 298.15 K
  solubility (mole fraction): 0.00232
In n-propyl acetate, 303.15 K
  solubility (mole fraction): 0.00245
In n-propyl acetate, 308.15 K
  solubility (mole fraction): 0.00261
In n-propyl acetate, 313.15 K
  solubility (mole fraction): 0.00273
In n-propyl acetate, 318.15 K
  solubility (mole fraction): 0.00284
In n-propyl acetate, 323.15 K
  solubility (mole fraction): 0.00295

Reference: BigSolDB 2.1
